Measurements reported in patent US20260027116A1, “Methods of Treating Chronic Graft-Versus-Host Disease Following Allogeneic Hematopoietic Stem Cell Transplantation” (Kadmon Corporation, LLC, priority 2022, published 2026).

System: lung function
Test: Example 1: percent predicted TLC change from baseline
Type: in vivo, human
Details: mean (SD)
Method: Change From Baseline in Percent Predicted Total Lung Capacity (TLC) at Each Specified Time Points. TLC is the volume of air in the lungs upon the maximum effort of inspiration. Baseline value was defined as valid and last non-missing value obtained within 28 days prior to participant receiving first study medication. EOT visit was performed within 3 days after the participant's last dose of study drug. […] Analysis was performed on mITT population. Here, ‘number analyzed’=participants with available data for each specified category. Here, ‘0’ in the number analyzed field signifies that none of the participants were available for the analysis at the specified time points.

CC(C)NC(=O)COc1cccc(-c2nc(Nc3ccc4[nH]ncc4c3)c3ccccc3n2)c1 [Belumosudil, 2-{3-[4-(1H-indazol-5-ylamino)-2-quinazolinyl]phenoxy}-N-(propan-2-yl) acetamide]
Change From Baseline in Percent Predicted Total Lung Capacity (TLC) (Cohort 2: 200 mg BID, Cycle 12, Day 1): 0.0 (—) Percent Predicted TLC
Change From Baseline in Percent Predicted Total Lung Capacity (TLC) (Cohort 2: 200 mg BID, Cycle 13, Day 1): −10.3 (18.7) Percent Predicted TLC
Change From Baseline in Percent Predicted Total Lung Capacity (TLC) (Cohort 2: 200 mg BID, Cycle 14, Day 1): −7.0 (—) Percent Predicted TLC
Change From Baseline in Percent Predicted Total Lung Capacity (TLC) (Cohort 2: 200 mg BID, Cycle 15, Day 1): −1.0 (5.6) Percent Predicted TLC
Change From Baseline in Percent Predicted Total Lung Capacity (TLC) (Cohort 2: 200 mg BID, Cycle 16, Day 1): −14.0 (12.7) Percent Predicted TLC
Change From Baseline in Percent Predicted Total Lung Capacity (TLC) (Cohort 2: 200 mg BID, Cycle 17, Day 1): −17.0 (11.4) Percent Predicted TLC
Change From Baseline in Percent Predicted Total Lung Capacity (TLC) (Cohort 2: 200 mg BID, Cycle 18, Day 1): −16.0 (8.5) Percent Predicted TLC
Change From Baseline in Percent Predicted Total Lung Capacity (TLC) (Cohort 2: 200 mg BID, Cycle 19, Day 1): −7.7 (10.5) Percent Predicted TLC
Change From Baseline in Percent Predicted Total Lung Capacity (TLC) (Cohort 2: 200 mg BID, Cycle 20, Day 1): −9.5 (16.3) Percent Predicted TLC
Change From Baseline in Percent Predicted Total Lung Capacity (TLC) (Cohort 2: 200 mg BID, Cycle 21, Day 1): −18.0 (—) Percent Predicted TLC
Change From Baseline in Percent Predicted Total Lung Capacity (TLC) (Cohort 2: 200 mg BID, Cycle 22, Day 1): −18.5 (6.4) Percent Predicted TLC
Change From Baseline in Percent Predicted Total Lung Capacity (TLC) (Cohort 2: 200 mg BID, Cycle 23, Day 1): −21.0 (19.8) Percent Predicted TLC
Change From Baseline in Percent Predicted Total Lung Capacity (TLC) (Cohort 2: 200 mg BID, Cycle 24, Day 1): −15.0 (—) Percent Predicted TLC
Change From Baseline in Percent Predicted Total Lung Capacity (TLC) (Cohort 2: 200 mg BID, Cycle 25, Day 1): −19.5 (13.4) Percent Predicted TLC
Change From Baseline in Percent Predicted Total Lung Capacity (TLC) (Cohort 2: 200 mg BID, Cycle 27, Day 1): −24.0 (12.7) Percent Predicted TLC
Change From Baseline in Percent Predicted Total Lung Capacity (TLC) (Cohort 2: 200 mg BID, Cycle 29, Day 1): −27.5 (21.9) Percent Predicted TLC
Change From Baseline in Percent Predicted Total Lung Capacity (TLC) (Cohort 2: 200 mg BID, Cycle 31, Day 1): −36.0 (—) Percent Predicted TLC
Change From Baseline in Percent Predicted Total Lung Capacity (TLC) (Cohort 2: 200 mg BID, Cycle 33, Day 1): −39.0 (—) Percent Predicted TLC
Change From Baseline in Percent Predicted Total Lung Capacity (TLC) (Cohort 2: 200 mg BID, Cycle 35, Day 1): −23.5 (16.3) Percent Predicted TLC
Change From Baseline in Percent Predicted Total Lung Capacity (TLC) (Cohort 2: 200 mg BID, EOT): −2.4 (15.0) Percent Predicted TLC
Change From Baseline in Percent Predicted Total Lung Capacity (TLC) (Cohort 3: 400 mg QD, Cycle 2, Day 1): −9.0 (13.4) Percent Predicted TLC
Change From Baseline in Percent Predicted Total Lung Capacity (TLC) (Cohort 3: 400 mg QD, Cycle 3, Day 1): −0.6 (14.8) Percent Predicted TLC
Change From Baseline in Percent Predicted Total Lung Capacity (TLC) (Cohort 3: 400 mg QD, Cycle 4, Day 1): 3.3 (14.0) Percent Predicted TLC
Change From Baseline in Percent Predicted Total Lung Capacity (TLC) (Cohort 3: 400 mg QD, Cycle 5, Day 1): −1.7 (11.2) Percent Predicted TLC
Change From Baseline in Percent Predicted Total Lung Capacity (TLC) (Cohort 3: 400 mg QD, Cycle 6, Day 1): −4.4 (11.6) Percent Predicted TLC
Change From Baseline in Percent Predicted Total Lung Capacity (TLC) (Cohort 3: 400 mg QD, Cycle 7, Day 1): −2.6 (13.4) Percent Predicted TLC
Change From Baseline in Percent Predicted Total Lung Capacity (TLC) (Cohort 3: 400 mg QD, Cycle 8, Day 1): −0.2 (12.9) Percent Predicted TLC
Change From Baseline in Percent Predicted Total Lung Capacity (TLC) (Cohort 3: 400 mg QD, Cycle 9, Day 1): −0.9 (15.8) Percent Predicted TLC
Change From Baseline in Percent Predicted Total Lung Capacity (TLC) (Cohort 3: 400 mg QD, Cycle 10, Day 1): 3.6 (14.7) Percent Predicted TLC
Change From Baseline in Percent Predicted Total Lung Capacity (TLC) (Cohort 3: 400 mg QD, Cycle 11, Day 1): −3.0 (19.7) Percent Predicted TLC
Change From Baseline in Percent Predicted Total Lung Capacity (TLC) (Cohort 3: 400 mg QD, Cycle 12, Day 1): −8.0 (14.2) Percent Predicted TLC
Change From Baseline in Percent Predicted Total Lung Capacity (TLC) (Cohort 3: 400 mg QD, Cycle 13, Day 1): −3.3 (17.6) Percent Predicted TLC
Change From Baseline in Percent Predicted Total Lung Capacity (TLC) (Cohort 3: 400 mg QD, Cycle 14, Day 1): −5.8 (16.5) Percent Predicted TLC
Change From Baseline in Percent Predicted Total Lung Capacity (TLC) (Cohort 3: 400 mg QD, Cycle 15, Day 1): −7.0 (12.0) Percent Predicted TLC
Change From Baseline in Percent Predicted Total Lung Capacity (TLC) (Cohort 3: 400 mg QD, Cycle 16, Day 1): −15.5 (9.5) Percent Predicted TLC
Change From Baseline in Percent Predicted Total Lung Capacity (TLC) (Cohort 3: 400 mg QD, Cycle 17, Day 1): −18.1 (15.6) Percent Predicted TLC
Change From Baseline in Percent Predicted Total Lung Capacity (TLC) (Cohort 3: 400 mg QD, Cycle 18, Day 1): 0.0 (13.9) Percent Predicted TLC
Change From Baseline in Percent Predicted Total Lung Capacity (TLC) (Cohort 3: 400 mg QD, Cycle 19, Day 1): −7.0 (5.4) Percent Predicted TLC
Change From Baseline in Percent Predicted Total Lung Capacity (TLC) (Cohort 3: 400 mg QD, Cycle 20, Day 1): −9.3 (15.4) Percent Predicted TLC
Change From Baseline in Percent Predicted Total Lung Capacity (TLC) (Cohort 3: 400 mg QD, Cycle 21, Day 1): −14.4 (24.0) Percent Predicted TLC
Change From Baseline in Percent Predicted Total Lung Capacity (TLC) (Cohort 3: 400 mg QD, Cycle 22, Day 1): −21.0 (14.1) Percent Predicted TLC
Change From Baseline in Percent Predicted Total Lung Capacity (TLC) (Cohort 3: 400 mg QD, Cycle 23, Day 1): −2.8 (18.8) Percent Predicted TLC
Change From Baseline in Percent Predicted Total Lung Capacity (TLC) (Cohort 3: 400 mg QD, Cycle 24, Day 1): −34.0 (—) Percent Predicted TLC
Change From Baseline in Percent Predicted Total Lung Capacity (TLC) (Cohort 3: 400 mg QD, Cycle 25, Day 1): −6.3 (24.1) Percent Predicted TLC
Change From Baseline in Percent Predicted Total Lung Capacity (TLC) (Cohort 3: 400 mg QD, Cycle 27, Day 1): −14.5 (24.7) Percent Predicted TLC
Change From Baseline in Percent Predicted Total Lung Capacity (TLC) (Cohort 3: 400 mg QD, Cycle 29, Day 1): 12.0 (14.1) Percent Predicted TLC
Change From Baseline in Percent Predicted Total Lung Capacity (TLC) (Cohort 3: 400 mg QD, Cycle 31, Day 1): 17.0 (—) Percent Predicted TLC
Change From Baseline in Percent Predicted Total Lung Capacity (TLC) (Cohort 3: 400 mg QD, Cycle 35, Day 1): 13.0 (—) Percent Predicted TLC
Change From Baseline in Percent Predicted Total Lung Capacity (TLC) (Cohort 3: 400 mg QD, Cycle 36, Day 1): −6.0 (—) Percent Predicted TLC
Change From Baseline in Percent Predicted Total Lung Capacity (TLC) (Cohort 3: 400 mg QD, Cycle 49, Day 1): 1.0 (—) Percent Predicted TLC
Change From Baseline in Percent Predicted Total Lung Capacity (TLC) (Cohort 3: 400 mg QD, EOT): −12.6 (20.1) Percent Predicted TLC
